From patent publication US12077503B2, “Substituted cyclic amides and their use as herbicides” (FMC CORPORATION, priority 2015, dated 2024)
Like-named read-outs stand apart in the source and are kept apart here.

How the values were obtained:
Assay in all cases: Test A preemergence
Format in all cases: in vivo
[1] = system: giant foxtail (Setaria faberii); details: Setaria faberi, pre-emergence, 240 h, preemergence; for pest or weed control at 125 g/ha: 125 g ai/ha; for pest or weed control at 500 g/ha: 500 g ai/ha
Summary of the method: (§1)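 Preemergence soil spray on seeded pots or post-emergence spray on 1–2 leaf plants, in loam–sand blend. Greenhouse ~10 d. Visual rating 0–100 against untreated plants.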

[2] = system: barnyardgrass (Echinochloa crus-galli); details: Echinochloa crus-galli, pre-emergence, 240 h, preemergence; for pest or weed control at 125 g/ha: 125 g ai/ha; for pest or weed control at 500 g/ha: 500 g ai/ha
Summary of the method: as §1

[3] = system: ryegrass, Italian (Italian ryegrass, Lolium multiflorum); details: Lolium multiflorum, pre-emergence, 240 h, preemergence; for pest or weed control at 125 g/ha: 125 g ai/ha; for pest or weed control at 500 g/ha: 500 g ai/ha
Summary of the method: as §1

[4] = system: pigweed (Amaranthus retroflexus); details: Amaranthus retroflexus, pre-emergence, 240 h, preemergence; for pest or weed control at 125 g/ha: 125 g ai/ha; for pest or weed control at 500 g/ha: 500 g ai/ha
[5] = system: Kochia (Kochia scoparia); details: Bassia scoparia, pre-emergence, 240 h, preemergence; for pest or weed control at 125 g/ha: 125 g ai/ha; for pest or weed control at 500 g/ha: 500 g ai/ha
Summary of the method: as §1

[6] = system: ragweed (common ragweed, Ambrosia elatior); details: Ambrosia artemisiifolia, pre-emergence, 240 h, preemergence; for pest or weed control at 125 g/ha: 125 g ai/ha; for pest or weed control at 500 g/ha: 500 g ai/ha
Summary of the method: as §1

[7] = visual injury rating, 0 to 100 scale where 0 is no effect and 100 is complete control, approximately 10 d, read-out: Foxtail, Giant plant response rating
[8] = 0 to 100 scale where 0 is no effect and 100 is complete control, read-out: Foxtail, Giant plant response rating
[9] = visual injury rating, 0 to 100 scale where 0 is no effect and 100 is complete control, approximately 10 d, read-out: Barnyardgrass plant response rating
[10] = 0 to 100 scale where 0 is no effect and 100 is complete control, read-out: Barnyardgrass plant response rating
[11] = visual injury rating, 0 to 100 scale where 0 is no effect and 100 is complete control, approximately 10 d, read-out: Ryegrass, Italian plant response rating
[12] = 0 to 100 scale where 0 is no effect and 100 is complete control, read-out: Ryegrass, Italian plant response rating
[13] = visual injury rating, 0 to 100 scale where 0 is no effect and 100 is complete control, approximately 10 d, read-out: Pigweed plant response rating
[14] = 0 to 100 scale where 0 is no effect and 100 is complete control, read-out: Pigweed plant response rating
[15] = visual injury rating, 0 to 100 scale where 0 is no effect and 100 is complete control, approximately 10 d, read-out: Kochia plant response rating
[16] = 0 to 100 scale where 0 is no effect and 100 is complete control, read-out: Kochia plant response rating
[17] = visual injury rating, 0 to 100 scale where 0 is no effect and 100 is complete control, approximately 10 d, read-out: Ragweed plant response rating
[18] = 0 to 100 scale where 0 is no effect and 100 is complete control, read-out: Ragweed plant response rating
[19] = visual rating after approx. 10 d, 0 to 100 scale where 0 is no effect and 100 is complete control, read-out: Plant response rating, Foxtail, Giant
[20] = 0 to 100 scale, 0 = no effect, 100 = complete control, read-out: Plant response rating, Foxtail, Giant
[21] = visual rating after approx. 10 d, 0 to 100 scale where 0 is no effect and 100 is complete control, read-out: Plant response rating, Barnyardgrass
[22] = 0 to 100 scale, 0 = no effect, 100 = complete control, read-out: Plant response rating, Barnyardgrass
[23] = visual rating after approx. 10 d, 0 to 100 scale where 0 is no effect and 100 is complete control, read-out: Plant response rating, Ryegrass, Italian
[24] = 0 to 100 scale, 0 = no effect, 100 = complete control, read-out: Plant response rating, Ryegrass, Italian
[25] = visual rating after approx. 10 d, 0 to 100 scale where 0 is no effect and 100 is complete control, read-out: Plant response rating, Pigweed
[26] = 0 to 100 scale, 0 = no effect, 100 = complete control, read-out: Plant response rating, Pigweed
[27] = visual rating after approx. 10 d, 0 to 100 scale where 0 is no effect and 100 is complete control, read-out: Plant response rating, Kochia
[28] = 0 to 100 scale, 0 = no effect, 100 = complete control, read-out: Plant response rating, Kochia
[29] = visual rating after approx. 10 d, 0 to 100 scale where 0 is no effect and 100 is complete control, read-out: Plant response rating, Ragweed
[30] = 0 to 100 scale, 0 = no effect, 100 = complete control, read-out: Plant response rating, Ragweed

## COc1cc([C@H]2CN(C)C(=O)[C@@H]2C(=O)Nc2ccccc2F)cc(OC)c1OC [Compound 1217]
[1]; [7]
  pest or weed control at 125 g/ha: 90%
[1]; [8]
  pest or weed control at 500 g/ha: 100%
[2]; [9]
  pest or weed control at 125 g/ha: 90%
[2]; [10]
  pest or weed control at 500 g/ha: 100%
[3]; [11]
  pest or weed control at 125 g/ha: 0%
[3]; [12]
  pest or weed control at 500 g/ha: 0%
[4]; [13]
  pest or weed control at 125 g/ha: 0%
[4]; [14]
  pest or weed control at 500 g/ha: 0%
[5]; [15]
  pest or weed control at 125 g/ha: 0%
[5]; [16]
  pest or weed control at 500 g/ha: 0%
[6]; [17]
  pest or weed control at 125 g/ha: 0%
[6]; [18]
  pest or weed control at 500 g/ha: 0%

## CSc1ccccc1NC(=O)[C@H]1C(=O)N(C)C[C@@H]1c1ccc2c(c1)OC(F)(F)O2 [Compound 1251]
[1]; [7]
  pest or weed control at 125 g/ha: 100%
[1]; [8]
  pest or weed control at 500 g/ha: 100%
[2]; [9]
  pest or weed control at 125 g/ha: 100%
[2]; [10]
  pest or weed control at 500 g/ha: 100%
[3]; [11]
  pest or weed control at 125 g/ha: 50%
[3]; [12]
  pest or weed control at 500 g/ha: 60%
[4]; [13]
  pest or weed control at 125 g/ha: 90%
[4]; [14]
  pest or weed control at 500 g/ha: 90%
[5]; [15]
  pest or weed control at 125 g/ha: 80%
[5]; [16]
  pest or weed control at 500 g/ha: 90%
[6]; [17]
  pest or weed control at 125 g/ha: 70%
[6]; [18]
  pest or weed control at 500 g/ha: 80%

## Cc1c(F)cccc1NC(=O)[C@H]1C(=O)N(C)C[C@@H]1c1ccc(F)c(Br)c1 [Compound 1211]
[1]; [7]
  pest or weed control at 125 g/ha: 100%
[1]; [8]
  pest or weed control at 500 g/ha: 100%
[2]; [9]
  pest or weed control at 125 g/ha: 100%
[2]; [10]
  pest or weed control at 500 g/ha: 100%
[3]; [11]
  pest or weed control at 125 g/ha: 50%
[3]; [12]
  pest or weed control at 500 g/ha: 80%
[4]; [13]
  pest or weed control at 125 g/ha: 50%
[4]; [14]
  pest or weed control at 500 g/ha: 70%
[5]; [15]
  pest or weed control at 125 g/ha: 20%
[5]; [16]
  pest or weed control at 500 g/ha: 70%
[6]; [17]
  pest or weed control at 125 g/ha: 50%
[6]; [18]
  pest or weed control at 500 g/ha: 50%

## Cc1ccc([C@H]2CNC(=O)[C@@H]2C(=O)Nc2cccc(F)c2F)s1 [Compound 729]
[1]; [19]
  pest or weed control at 125 g/ha: 0%
[1]; [20]
  pest or weed control at 500 g/ha: 0%
[2]; [21]
  pest or weed control at 125 g/ha: 0%
[2]; [22]
  pest or weed control at 500 g/ha: 0%
[3]; [23]
  pest or weed control at 125 g/ha: 0%
[3]; [24]
  pest or weed control at 500 g/ha: 0%
[4]; [25]
  pest or weed control at 125 g/ha: 0%
[4]; [26]
  pest or weed control at 500 g/ha: 0%
[5]; [27]
  pest or weed control at 125 g/ha: 0%
[5]; [28]
  pest or weed control at 500 g/ha: 0%
[6]; [29]
  pest or weed control at 125 g/ha: 0%
[6]; [30]
  pest or weed control at 500 g/ha: 0%

## CN1C[C@H](c2ccc(C(F)(F)F)cc2)[C@@H](C(=O)Nc2ccc(F)c(F)c2F)C1=O [Compound 745]
[1]; [19]
  pest or weed control at 125 g/ha: 90%
[1]; [20]
  pest or weed control at 500 g/ha: 90%
[2]; [21]
  pest or weed control at 125 g/ha: 90%
[2]; [22]
  pest or weed control at 500 g/ha: 90%
[3]; [23]
  pest or weed control at 125 g/ha: 70%
[3]; [24]
  pest or weed control at 500 g/ha: 90%
[4]; [25]
  pest or weed control at 125 g/ha: 80%
[4]; [26]
  pest or weed control at 500 g/ha: 90%
[5]; [27]
  pest or weed control at 125 g/ha: 90%
[5]; [28]
  pest or weed control at 500 g/ha: 90%
[6]; [29]
  pest or weed control at 125 g/ha: 80%
[6]; [30]
  pest or weed control at 500 g/ha: 80%

## CN1C[C@H](c2cc(F)cc(C(F)(F)F)c2)[C@@H](C(=O)Nc2cccc(F)c2F)C1=O [Compound 1214]
[1]; [7]
  pest or weed control at 125 g/ha: 90%
[1]; [8]
  pest or weed control at 500 g/ha: 90%
[2]; [9]
  pest or weed control at 125 g/ha: 90%
[2]; [10]
  pest or weed control at 500 g/ha: 90%
[3]; [11]
  pest or weed control at 125 g/ha: 60%
[3]; [12]
  pest or weed control at 500 g/ha: 90%
[4]; [13]
  pest or weed control at 125 g/ha: 60%
[4]; [14]
  pest or weed control at 500 g/ha: 70%
[5]; [15]
  pest or weed control at 125 g/ha: 50%
[5]; [16]
  pest or weed control at 500 g/ha: 60%
[6]; [17]
  pest or weed control at 125 g/ha: 0%
[6]; [18]
  pest or weed control at 500 g/ha: 70%
